Measurements as given in PubChem BioAssay (NCI).
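Where inhibition never reached the appropriate level, the endpoint shown equals the highest concentration tested. Otherwise, values were interpolated linearly from a five-concentration, 48-hour dose response in 96-well plates. At the GI50, growth is halved. TGI denotes the concentration required for complete inhibition of growth.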

Experiments:
Assay in all cases: NCI tumour cell line growth inhibition, 48 h; in the data active means GI50 below about 0.43 µM; inactive means the rest
A549 NSCLC = system: A549 NSCLC
CCRF-CEM leukemia = system: CCRF-CEM leukemia
EKVX NSCLC = system: EKVX NSCLC
HCT-15 colon = system: HCT-15 colon
OVCAR-3 ovarian = system: OVCAR-3 ovarian
OVCAR-8 ovarian = system: OVCAR-8 ovarian
SN12C renal = system: SN12C renal
UACC-257 melanoma = system: UACC-257 melanoma
UO-31 renal = system: UO-31 renal
K-562 leukemia = system: K-562 leukemia

C=CCC12CCC(=O)[C@@]1(C)CC=C(O)C2=O (some centres not stated)
> 100 µM: TGI (A549 NSCLC) | TGI (CCRF-CEM leukemia) | TGI (EKVX NSCLC) | TGI (HCT-15 colon) | TGI (OVCAR-3 ovarian) | TGI (OVCAR-8 ovarian) | TGI (SN12C renal) | TGI (UACC-257 melanoma) | TGI (UO-31 renal)

Cc1ccc(NC(=O)c2nc(S(C)(=O)=O)oc2-c2ccc(F)cc2)cc1Nc1ccc2ncn(C)c(=O)c2c1
3.4 µM: TGI (UO-31 renal)
29.5 µM: TGI (A549 NSCLC)
inactive: GI50 (A549 NSCLC) 13.9 µM | GI50 (UACC-257 melanoma) 1.88 µM | GI50 (UO-31 renal) 1.93 µM
3.72 µM: TGI (UACC-257 melanoma)

O=C1C=CC(=O)N1c1ccc(I)cc1
> 100 µM: TGI (OVCAR-8 ovarian)
38.5 µM: TGI (UO-31 renal)
53.5 µM: TGI (K-562 leukemia)
41.2 µM: TGI (EKVX NSCLC)
12 µM: TGI (CCRF-CEM leukemia)
52.7 µM: TGI (OVCAR-3 ovarian)
33.9 µM: TGI (HCT-15 colon)
48 µM: TGI (SN12C renal)
47 µM: TGI (A549 NSCLC)
32.5 µM: TGI (UACC-257 melanoma)

O=C(O)CCC1CCc2cccc(OCC(=O)O)c2C1=O (configuration not stated)
> 100 µM: TGI (A549 NSCLC) | TGI (CCRF-CEM leukemia) | TGI (EKVX NSCLC) | TGI (HCT-15 colon) | TGI (K-562 leukemia) | TGI (OVCAR-3 ovarian) | TGI (OVCAR-8 ovarian) | TGI (SN12C renal) | TGI (UACC-257 melanoma)

O=C(O)CNCCc1ccccc1
> 100 µM: TGI (A549 NSCLC) | TGI (CCRF-CEM leukemia) | TGI (EKVX NSCLC) | TGI (HCT-15 colon) | TGI (K-562 leukemia) | TGI (OVCAR-3 ovarian) | TGI (OVCAR-8 ovarian) | TGI (SN12C renal) | TGI (UO-31 renal)

N#C/C(=C\c1ccc(F)cc1)n1nc2cccc(F)c2n1
inactive: GI50 (A549 NSCLC) 4.01 µM | GI50 (CCRF-CEM leukemia) 3.24 µM | GI50 (EKVX NSCLC) 3.8 µM | GI50 (HCT-15 colon) 2.58 µM | GI50 (K-562 leukemia) 3.25 µM | GI50 (OVCAR-3 ovarian) 2.75 µM | GI50 (OVCAR-8 ovarian) 5.06 µM | GI50 (SN12C renal) 3.84 µM | GI50 (UO-31 renal) 3.65 µM
> 100 µM: TGI (A549 NSCLC) | TGI (CCRF-CEM leukemia) | TGI (EKVX NSCLC) | TGI (HCT-15 colon) | TGI (K-562 leukemia) | TGI (OVCAR-3 ovarian) | TGI (OVCAR-8 ovarian) | TGI (SN12C renal) | TGI (UO-31 renal)

O=C1c2cccnc2C(=O)c2c1c(C(=O)OCCc1ccccn1)c1ccccn21
2.12 µM: TGI (OVCAR-8 ovarian)
1.59 µM: TGI (SN12C renal)
0.387 µM: TGI (UO-31 renal)
inactive: GI50 (CCRF-CEM leukemia) 1.46 µM
> 25.9 µM: TGI (CCRF-CEM leukemia)
1.56 µM: TGI (A549 NSCLC)
> 100 µM: TGI (K-562 leukemia)
active: GI50 (A549 NSCLC) 0.248 µM | GI50 (EKVX NSCLC) 0.305 µM | GI50 (HCT-15 colon) 0.0145 µM | GI50 (K-562 leukemia) 0.0612 µM | GI50 (OVCAR-3 ovarian) 0.0305 µM | GI50 (OVCAR-8 ovarian) 0.0589 µM | GI50 (SN12C renal) 0.0261 µM | GI50 (UACC-257 melanoma) 0.152 µM | GI50 (UO-31 renal) < 0.0117 µM
3.81 µM: TGI (EKVX NSCLC)
0.583 µM: TGI (UACC-257 melanoma)
1.45 µM: TGI (OVCAR-3 ovarian)
1.46 µM: TGI (HCT-15 colon)

FC(F)(F)c1ccc(-c2ncc(-c3ccc(C(F)(F)F)cc3)c(NCc3cc(C(F)(F)F)cc(C(F)(F)F)c3)n2)cc1
36.6 µM: TGI (UO-31 renal)
> 100 µM: TGI (A549 NSCLC) | TGI (CCRF-CEM leukemia) | TGI (HCT-15 colon) | TGI (K-562 leukemia) | TGI (OVCAR-8 ovarian) | TGI (SN12C renal)
16 µM: TGI (OVCAR-3 ovarian)
inactive: GI50 (A549 NSCLC) 4.05 µM | GI50 (CCRF-CEM leukemia) 4.34 µM | GI50 (HCT-15 colon) 3.74 µM | GI50 (K-562 leukemia) 3.97 µM | GI50 (OVCAR-3 ovarian) 3.39 µM | GI50 (OVCAR-8 ovarian) 3.8 µM | GI50 (SN12C renal) 3.65 µM | GI50 (UACC-257 melanoma) 5.29 µM | GI50 (UO-31 renal) 2.94 µM
44.4 µM: TGI (UACC-257 melanoma)

O=c1[nH]c(F)nc2c1ncn2C1OC(CO)C(O)C1O (configuration not stated)
inactive: GI50 (A549 NSCLC) > 100 µM | GI50 (CCRF-CEM leukemia) > 100 µM | GI50 (HCT-15 colon) > 100 µM | GI50 (K-562 leukemia) > 100 µM | GI50 (OVCAR-3 ovarian) > 100 µM | GI50 (OVCAR-8 ovarian) > 100 µM | GI50 (SN12C renal) > 100 µM | GI50 (UACC-257 melanoma) > 100 µM | GI50 (UO-31 renal) > 100 µM
> 100 µM: TGI (A549 NSCLC) | TGI (CCRF-CEM leukemia) | TGI (HCT-15 colon) | TGI (K-562 leukemia) | TGI (OVCAR-3 ovarian) | TGI (OVCAR-8 ovarian) | TGI (SN12C renal) | TGI (UACC-257 melanoma) | TGI (UO-31 renal)
